Measured values taken from the NIST ThermoML archive (doi:10.1016/j.jct.2016.09.026).
Numbers after ± are expanded uncertainties.

Assays:
[1] = molar heat capacity at constant pressure; settings: 101.33 kPa, Crystal, Small sample (50 mg) DSC
[2] = Crystal
[3] = Molar enthalpy of transition or fusion; settings: Crystal; DSC
[4] = molar enthalpy of vaporization or sublimation; settings: 351.22 K; Crystal; Static calorimetry

CCCC(=O)c1ccc(O)cc1 [1-(4-hydroxyphenyl)-1-butanone]
Settings | Normal melting temperature [°C] | molar heat capacity at constant pressure [J/K/mol]
[1], 288.67 K | – | 219.2 ± 14
[1], 289.99 K | – | 221.2 ± 15
[1], 291.29 K | – | 221.3 ± 14
[1], 291.6 K | – | 222 ± 15
[1], 292.87 K | – | 223.3 ± 15
[1], 294.14 K | – | 224.2 ± 14
[1], 295.4 K | – | 225.7 ± 13
[1], 296.66 K | – | 227.4 ± 12
[1], 297.92 K | – | 228.6 ± 13
[1], 299.17 K | – | 229.2 ± 12
[1], 300.43 K | – | 231 ± 12
[1], 301.68 K | – | 232.3 ± 10
[1], 302.94 K | – | 232.9 ± 11
[1], 304.19 K | – | 234.6 ± 7.7
[1], 305.45 K | – | 234.9 ± 9.2
[1], 306.7 K | – | 236.9 ± 9.5
[1], 307.95 K | – | 238.6 ± 8.6
[1], 309.21 K | – | 239.7 ± 7.8
[1], 310.46 K | – | 240.7 ± 7.8
[1], 311.71 K | – | 242 ± 7.2
[1], 312.96 K | – | 243.7 ± 7.8
[1], 314.21 K | – | 244.9 ± 6.2
[1], 315.46 K | – | 245.8 ± 5.9
[1], 316.71 K | – | 247 ± 4.7
[1], 317.96 K | – | 247.7 ± 6.2
[1], 319.22 K | – | 249.1 ± 5
[1], 320.47 K | – | 250.2 ± 4
[1], 321.72 K | – | 251.4 ± 5.5
[1], 322.97 K | – | 253 ± 5.2
[1], 324.23 K | – | 254.5 ± 6
[1], 325.48 K | – | 256.4 ± 5
[1], 326.73 K | – | 257.1 ± 6.3
[1], 327.98 K | – | 258.9 ± 6.5
[1], 329.23 K | – | 260.2 ± 6.5
[1], 330.48 K | – | 262.1 ± 7.6
[1], 331.73 K | – | 263.6 ± 7.7
[1], 332.98 K | – | 265.5 ± 6.3
[1], 334.23 K | – | 265.9 ± 7.7
[1], 335.48 K | – | 267.6 ± 7.1
[1], 336.73 K | – | 270.1 ± 6.6
[1], 337.98 K | – | 270.4 ± 7.7
[1], 339.23 K | – | 272 ± 8
[1], 340.48 K | – | 274.4 ± 10
[1], 341.73 K | – | 276 ± 8.9
[1], 342.98 K | – | 278.2 ± 11
[1], 344.23 K | – | 279.7 ± 10
[1], 345.48 K | – | 281.2 ± 12
[1], 346.73 K | – | 282.8 ± 11
[1], 347.98 K | – | 284.5 ± 12
[1], 349.23 K | – | 287 ± 13
[1], 350.48 K | – | 289 ± 12
[2], DTA | 91.6 ± 0.4 | –

Settings | mass density [kg/m3]
[2], 298 K, 101.33 kPa, X-ray diffraction | 1204.5 ± 7.1

Settings | Molar enthalpy of transition or fusion [kcal/mol] | molar enthalpy [kcal/mol]
[3] | 5.73 ± 0.129 | –
[4] | – | 27.3 ± 0.406
